Measured values taken from patent publication US20230330093A1, “APPLICATION OF NITROGEN-CONTAINING SATURATED HETEROCYCLIC COMPOUND” (SHANGHAI PHARMACEUTICALS HOLDING CO., LTD., priority 2020, published 2023).
Several values for one entry are separate records, joined by “and”; a condition that tells them apart may be missing. Identical values can stand only once.

How the values were obtained:
[1] = tested on: rhesus monkeys with spontaneous chronic kidney disease; test: Effect on cystatin C (CysC), 8-week administration; assay type: in vivo, Macaca mulatta (Rhesus Macaque)
Method: (§1) In the trial, animals were brought in three stages. […] Glomerular filtration rate […]: creatinine (Cr-P), urea nitrogen (BUN) and cystatin (CysC) were detected, and the eGFR value was obtained by calculation. It was performed once before the administration and once every two weeks after the administration. […] ELISA kit was used for NT-proBNP test. [table]

[2] = tested on: rhesus monkeys with spontaneous chronic kidney disease; test: Effect on plasma creatinine Cr-P, 8-week administration; assay type: in vivo, Macaca mulatta (Rhesus Macaque)
Method: as §1

[3] = tested on: rhesus monkeys with spontaneous chronic kidney disease; test: Effect on heart function, cardiac Doppler ultrasound, 8-week administration
Method: In the trial, animals were brought in three stages.
This was performed once before administration and once after administration. UACR=MALB/Cr—U. • Blood pressure: the blood pressure was checked after anesthesia, including systolic blood pressure (SBP), diastolic blood pressure (DBP), mean blood pressure (MBP) and heart rate (HR). This was performed once before administration and once at weeks 4 and 8 respectively after administration. • Cardiac GE Doppler ultrasound: historical cardiac ultrasonography once within 1 year (selected animals), once before administration (within 30 days (D-30) of the baseline period), and once at week 8 after administration.
Anesthesia method: 15 mg/kg of ketamine hydrochloride was used for intramuscular injection anesthesia. According to the animal anesthesia state, the supplemental anesthesia will be performed after judgment by veterinarian. Each supplemental anesthesia dose was ½ of the initial dose.
Detection method: The animal was placed in the left decubitus position, and the 6S-RS probe (frequency 2.7-8.0 MHz) was used for image acquisition.
Analysis method: After the image was collected and saved, the supporting analysis workstation EchoPAC Software was used to repeatedly detect various indicators of systolic and diastolic functions in 3 consecutive cardiac cycles.
Testing indicators and ultrasonic technology: see Table 9 below.
Testing equipment: GE Vivid S5 color Doppler ultrasound diagnostic system.

[4] = 1 mg/kg (n = 5), Baseline, single animals and Mean ± SD
[5] = 1 mg/kg (n = 5), Baseline, single animals and Mean ± SD, mean
[6] = 2 mg/kg (n = 5), Baseline, single animals and Mean ± SD
[7] = 2 mg/kg (n = 5), Baseline, single animals and Mean ± SD, mean
[8] = 5 mg/kg (n = 6), Baseline, single animals and Mean ± SD
[9] = 5 mg/kg (n = 6), Baseline, single animals and Mean ± SD, mean

COC(=O)NCCCn1nc([C@@H](C)N(C(=O)[C@H]2CNCCO2)C2CC2)c2ccc(C)nc21.O=C(O)C[C@H](O)C(=O)O [malate of compound of Formula I] was tested, and the CysC ([1]; 1 mg/kg (n = 5), 8 weeks, mean) was 1.60 ± 0.11 mg/L, the CysC [1, 4] was 1.67 mg/L and 1.80 mg/L and 1.72 mg/L and 1.84 mg/L and 1.75 mg/L and the CysC [1, 5] was 1.76 ± 0.07 mg/L. The CysC ([1]; 2 mg/kg (n = 5), 2 weeks) was 1.44 mg/L and 1.97 mg/L and 1.71 mg/L and 1.73 mg/L and 1.51 mg/L, the CysC ([1]; 2 mg/kg (n = 5), 2 weeks, mean) was 1.67 ± 0.21 mg/L and the CysC ([1]; 2 mg/kg (n = 5), 4 weeks) was 1.31 mg/L and 1.77 mg/L and 1.56 mg/L and 1.43 mg/L and 1.47 mg/L. The CysC ([1]; 2 mg/kg (n = 5), 4 weeks, mean) was 1.51 ± 0.17 mg/L, the CysC ([1]; 2 mg/kg (n = 5), 6 weeks) was 1.39 mg/L and 1.76 mg/L and 1.65 mg/L and 1.54 mg/L and 1.42 mg/L and the CysC ([1]; 2 mg/kg (n = 5), 6 weeks, mean) was 1.55 ± 0.16 mg/L. For the same molecule, the CysC ([1]; 2 mg/kg (n = 5), 8 weeks) was 1.36 mg/L and 1.68 mg/L and 1.58 mg/L and 1.55 mg/L and 1.47 mg/L, the CysC ([1]; 2 mg/kg (n = 5), 8 weeks, mean) was 1.53 ± 0.12 mg/L and the CysC [1, 6] was 1.57 mg/L and 1.87 mg/L and 1.72 mg/L and 1.69 mg/L and 1.56 mg/L. The CysC [1, 7] was 1.68 ± 0.13 mg/L, the CysC ([1]; 5 mg/kg (n = 6), 2 weeks) was 1.63 mg/L and 1.45 mg/L and 2.63 mg/L and 1.46 mg/L and 1.64 mg/L and the CysC ([1]; 5 mg/kg (n = 6), 2 weeks, mean) was 1.74 ± 0.44 mg/L. For the same molecule, the CysC ([1]; 5 mg/kg (n = 6), 4 weeks) was 1.68 mg/L and 1.73 mg/L and 1.64 mg/L and 2.41 mg/L and 1.36 mg/L and 1.44 mg/L, the CysC ([1]; 5 mg/kg (n = 6), 4 weeks, mean) was 1.71 ± 0.37 mg/L and the CysC ([1]; 5 mg/kg (n = 6), 6 weeks) was 1.59 mg/L and 1.47 mg/L and 1.80 mg/L and 2.45 mg/L and 1.40 mg/L and 1.46 mg/L. For the same molecule, the CysC ([1]; 5 mg/kg (n = 6), 6 weeks, mean) was 1.70 ± 0.40 mg/L, the CysC ([1]; 5 mg/kg (n = 6), 8 weeks) was 1.46 mg/L and 1.69 mg/L and 1.66 mg/L and 2.29 mg/L and 1.50 mg/L and 1.39 mg/L and the CysC ([1]; 5 mg/kg (n = 6), 8 weeks, mean) was 1.67 ± 0.33 mg/L. The CysC [1, 8] was 1.49 mg/L and 1.63 mg/L and 1.61 mg/L and 2.52 mg/L and 1.47 mg/L and 1.55 mg/L, the CysC [1, 9] was 1.71 ± 0.40 mg/L and the Cr-P ([2]; 1 mg/kg (n = 5), 2 weeks) was 1.21 mg/dL and 1.07 mg/dL and 1.12 mg/dL and 1.13 mg/dL and 1.24 mg/dL. For the same molecule, the Cr-P ([2]; 1 mg/kg (n = 5), 2 weeks, mean) was 1.15 ± 0.07 mg/dL, the Cr-P ([2]; 1 mg/kg (n = 5), 4 weeks) was 1.11 mg/dL and 1.01 mg/dL and 1.12 mg/dL and 1.06 mg/dL and 1.26 mg/dL and the Cr-P ([2]; 1 mg/kg (n = 5), 4 weeks, mean) was 1.11 ± 0.09 mg/dL. For the same molecule, the Cr-P ([2]; 1 mg/kg (n = 5), 6 weeks) was 1.16 mg/dL and 1.07 mg/dL and 1.22 mg/dL, the Cr-P ([2]; 1 mg/kg (n = 5), 6 weeks, mean) was 1.12 ± 0.07 mg/dL and the Cr-P ([2]; 1 mg/kg (n = 5), 8 weeks) was 1.14 mg/dL and 1.01 mg/dL and 1.17 mg/dL and 1.18 mg/dL and 1.22 mg/dL. For the same molecule, the Cr-P ([2]; 1 mg/kg (n = 5), 8 weeks, mean) was 1.14 ± 0.08 mg/dL, the Cr-P [2, 4] was 1.25 mg/dL and 1.03 mg/dL and 1.09 mg/dL and 1.05 mg/dL and 1.21 mg/dL and the Cr-P [2, 5] was 1.13 ± 0.10 mg/dL. The Cr-P ([2]; 2 mg/kg (n = 5), 2 weeks) was 1.1 mg/dL and 1.19 mg/dL and 1.52 mg/dL and 1.54 mg/dL and 1.11 mg/dL, the Cr-P ([2]; 2 mg/kg (n = 5), 2 weeks, mean) was 1.29 ± 0.22 mg/dL and the Cr-P ([2]; 2 mg/kg (n = 5), 4 weeks) was 1.15 mg/dL and 1.44 mg/dL and 1.47 mg/dL and 1.26 mg/dL and 1.09 mg/dL. The Cr-P ([2]; 2 mg/kg (n = 5), 4 weeks, mean) was 1.28 ± 0.17 mg/dL, the Cr-P ([2]; 2 mg/kg (n = 5), 6 weeks) was 1.17 mg/dL and 1.27 mg/dL and 1.43 mg/dL and 1.34 mg/dL and 1.04 mg/dL and the Cr-P ([2]; 2 mg/kg (n = 5), 6 weeks, mean) was 1.25 ± 0.15 mg/dL. The Cr-P ([2]; 2 mg/kg (n = 5), 8 weeks) was 1.17 mg/dL and 1.29 mg/dL and 1.4 mg/dL and 1.3 mg/dL and 1.11 mg/dL, the Cr-P ([2]; 2 mg/kg (n = 5), 8 weeks, mean) was 1.25 ± 0.11 mg/dL and the Cr-P [2, 6] was 1.15 mg/dL and 1.14 mg/dL and 1.36 mg/dL and 1.42 mg/dL and 1.06 mg/dL. For the same molecule, the Cr-P [2, 7] was 1.23 ± 0.16 mg/dL, the Cr-P ([2]; 5 mg/kg (n = 6), 2 weeks) was 0.92 mg/dL and 1.14 mg/dL and 0.88 mg/dL and 1.12 mg/dL and 1.40 mg/dL and 0.96 mg/dL and the Cr-P ([2]; 5 mg/kg (n = 6), 2 weeks, mean) was 1.07 ± 0.19 mg/dL. The Cr-P ([2]; 5 mg/kg (n = 6), 4 weeks) was 0.85 mg/dL and 1.26 mg/dL and 0.89 mg/dL and 1.15 mg/dL and 1.13 mg/dL and 1.33 mg/dL, the Cr-P ([2]; 5 mg/kg (n = 6), 4 weeks, mean) was 1.10 ± 0.19 mg/dL and the Cr-P ([2]; 5 mg/kg (n = 6), 6 weeks) was 0.87 mg/dL and 1.42 mg/dL and 1.02 mg/dL and 1.06 mg/dL and 1.12 mg/dL and 1.32 mg/dL. For the same molecule, the Cr-P ([2]; 5 mg/kg (n = 6), 6 weeks, mean) was 1.14 ± 0.20 mg/dL, the Cr-P ([2]; 5 mg/kg (n = 6), 8 weeks) was 0.85 mg/dL and 1.22 mg/dL and 0.95 mg/dL and 1.04 mg/dL and 1.11 mg/dL and 1.18 mg/dL and the Cr-P ([2]; 5 mg/kg (n = 6), 8 weeks, mean) was 1.06 ± 0.14 mg/dL. For the same molecule, the Cr-P [2, 8] was 0.90 mg/dL and 1.53 mg/dL and 1.10 mg/dL and 0.99 mg/dL and 1.43 mg/dL and 1.79 mg/dL, the Cr-P [2, 9] was 1.29 ± 0.35 mg/dL and the E/Ea ([3]; 1 mg/kg (n = 5), 8 weeks) was 10.68 and 11.36 and 8.16 and 8.95 and 10.64. For the same molecule, the Ea ([3]; 1 mg/kg (n = 5), 8 weeks) was 5.35 cm/s and 5.65 cm/s and 6.99 cm/s and 5.37 cm/s and 5.06 cm/s, the LVEF ([3]; 1 mg/kg (n = 5), 8 weeks) was 63.95% and 55.81% and 54.03% and 61.01% and 49.37% and the E/Ea ([3]; 1 mg/kg (n = 5), Baseline) was 10.50 and 9.53 and 9.22 and 8.68 and 10.36. For the same molecule, the Ea ([3]; 1 mg/kg (n = 5), Baseline) was 5.90 cm/s and 6.31 cm/s and 4.81 cm/s and 5.18 cm/s and 6.37 cm/s, the LVEF [3, 4] was 65.25% and 55.89% and 54.86% and 69.87% and 47.92% and the E/Ea ([3]; 2 mg/kg (n = 5), 8 weeks) was 10.63 and 6.35 and 7.84 and 9.88 and 6.22. The Ea ([3]; 2 mg/kg (n = 5), 8 weeks) was 5.00 cm/s and 6.66 cm/s and 8.01 cm/s and 5.91 cm/s and 6.82 cm/s, the LVEF ([3]; 2 mg/kg (n = 5), 8 weeks) was 58.54% and 67.80% and 57.13% and 58.03% and 62.85% and the LVEF [3, 6] was 54.41% and 70.41% and 57.45% and 57.90% and 62.76%. For the same molecule, the E/Ea ([3]; 5 mg/kg (n = 6), 8 weeks) was 7.38 and 9.25 and 8.22 and 6.12 and 11.07, the Ea ([3]; 5 mg/kg (n = 6), 8 weeks) was 8.53 cm/s and 8.26 cm/s and 6.47 cm/s and 8.40 cm/s and 6.62 cm/s and the LVEF ([3]; 5 mg/kg (n = 6), 8 weeks) was 62.99% and 45.89% and 73.88% and 54.16% and 55.90%. The LVEF [3, 8] was 63.71% and 42.11% and 71.95% and 49.98% and 59.46%, the “LVEF % compared with the baseline” value ([3]; 5 mg/kg, 8-week administration, 2 animals (No. 5073 and No. 287) with low ejection fraction) was “increased LVEF %” and the “adverse reaction in the systolic and diastolic function (echocardiography)” value ([3]; rhesus monkey, in vivo) was “no obvious adverse reaction”.
